Reference: US5143908A, “Antibacterial agents and potentiators of carbapenem antibiotics” (Merck & Co., Inc., priority 1990, dated 1992)
In brackets after ≈: the same amount, converted by molar mass.

What was measured:
[1] = biological target: T1, D-Alanyl-D-Alanine ligase (Enterococcus hirae, UniProt Q47827); assay: D-Alanyl-D-Alanine ligase inhibition in vitro; type: biochemical; details: inhibitor pre-incubated with enzyme 40 minutes at room temperature, then 37° C. for 30 minutes; 14C-D-alanine substrate; read-out: IC50 (μM), DAlaAla ligase inhibition
T1 sequence (Q47827 1-358): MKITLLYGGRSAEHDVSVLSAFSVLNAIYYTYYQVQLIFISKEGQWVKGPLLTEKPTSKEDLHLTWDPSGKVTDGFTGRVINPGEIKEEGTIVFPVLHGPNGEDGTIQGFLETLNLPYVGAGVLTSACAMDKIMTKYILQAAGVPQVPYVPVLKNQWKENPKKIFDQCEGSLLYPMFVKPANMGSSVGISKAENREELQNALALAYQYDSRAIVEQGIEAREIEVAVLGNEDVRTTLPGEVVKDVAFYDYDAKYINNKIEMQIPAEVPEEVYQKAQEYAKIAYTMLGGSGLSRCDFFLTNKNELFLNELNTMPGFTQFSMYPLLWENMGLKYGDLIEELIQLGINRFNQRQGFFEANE
Protocol: The ligase enzyme inhibitory activity of compounds of Formula I have been evaluated in vitro with only minor modifications of the procedures of F. C. Neuhaus (Biochemistry 3, 471-480 (1964) and references cited therein) using D-cycloserine as a control and standard ligase inhibitor. The procedure is as follows:
Streptococcus faecalis (ATCC 8043) was grown as described by Neuhaus (J. Biol. Chem., 237:778, 1962). Cell-free extracts were prepared by sonication followed by centrifugation at 27,000 x g for 30 minutes. Protein was precipitated with 55% ammonium sulfate. The precipitate was dissolved in 0.05M Tris-Cl buffer (pH 7.0), dialyzed against 0.002M glutathione and stored in liquid nitrogen. No loss of activity was observed after 1 year.
The assay mixture contained 0.05M Tris-Cl buffer (pH 7.9), 0.01M KCl, 0.008M MgCl2, 0.005M ATP, 0.005M (14C-l)-D-alanine and 5 μl of enzyme (specific activity=0.38 units/mg protein). Assay volume was 0.1 ml.
Inhibitors were pre-incubated with enzyme, MgCl2, KCl and buffer, for 40 minutes at room temperature, before addition of ATP and substrate. Samples were subsequently incubated at 37° C. for 30 minutes.
Twenty μl of each sample was applied to the preabsorbent layer of high resolution, prechanneled silica-gel TLC plates to stop the reaction. Plates were developed in ethanol:ammonium hydroxide:H2 O (11:1:8) for 2-3 hours and the radioactive zones located and integrated with a Berthold Linear Analyzer. […] IC50's were determined for active compounds (70% inhibition).

[2] = system: E. coli TEM 2+; assay: Agar dilution antibacterial assay (MIC); type: cell-based; details: Escherichia coli, read-out: Minimum Inhibitory Concentration, E. coli TEM 2+
Excerpt: The antibacterial data shown below were obtained using a synthetic agar medium described by F. R. Atherton et al., Antimicrobial Agents and Chemotherapy, 15, 677 (1979).
(Minimum Inhibitory Concentrations from Agar Dilution Assays in mg/ml)

CC(N)P(=O)(O)CCC(=O)O (racemic) [DL, R2=H, R3=H, 1-Aminoethyl-[2-carboxy-1-ethyl]phosphinic acid]
IC50 [1]: 535 µM

CCC(CP(=O)(O)C(C)N)C(=O)O (racemic) [DL, R2=ethyl, R3=H, 1-Aminoethyl-[2-carboxy-1-n-butyl]phosphinic acid]
IC50 [1]: 50 µM

CCCCCCCC(CP(=O)(O)C(C)N)C(=O)O (racemic) [DL, R2=n-heptyl, R3=H, 1-Aminoethyl-[2-carboxy-1-nonyl]phosphinic acid]
IC50 [1]: 12.5 µM

CCC(CP(=O)(O)[C@@H](C)N)C(=O)O (stereo partly drawn) [D, R2=ethyl, R3=H, 1-D-Aminoethyl-(2-carboxy-1-n-butyl)phosphinic acid]
MIC [2]: 64 mg/mL (≈ 306 mM)
